The test system of test [1] is THP-1 cells. The test can be described thus: Measurement of IL-1β production, hTRF protocol (second alternative procedure), THP-1 cells. It counts as cell-based, human. To be noted: Homo sapiens, THP-1, IL-1β production, read-out: NLRP3 hILIB EC50. The method in brief:
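Compounds, dilution series starting at a final 10 μM, were incubated 2 hours at 37° C with PMA-differentiated THP-1 cells (50 ng/ml overnight; 50,000 cells/well, 2% FBS RPMI). Released IL-1β quantified in supernatant by hTRF kit with 1:40 antibody dilution, 4° C overnight, 665/615 nm ratio.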

The target of test [2] is T1, TLR7 (Homo sapiens, UniProt Q9NYK1).
T1 construct: human HEK-Blue cells co-expressing a TLR7 or TLR8 gene
T1 sequence (Q9NYK1 27-1049): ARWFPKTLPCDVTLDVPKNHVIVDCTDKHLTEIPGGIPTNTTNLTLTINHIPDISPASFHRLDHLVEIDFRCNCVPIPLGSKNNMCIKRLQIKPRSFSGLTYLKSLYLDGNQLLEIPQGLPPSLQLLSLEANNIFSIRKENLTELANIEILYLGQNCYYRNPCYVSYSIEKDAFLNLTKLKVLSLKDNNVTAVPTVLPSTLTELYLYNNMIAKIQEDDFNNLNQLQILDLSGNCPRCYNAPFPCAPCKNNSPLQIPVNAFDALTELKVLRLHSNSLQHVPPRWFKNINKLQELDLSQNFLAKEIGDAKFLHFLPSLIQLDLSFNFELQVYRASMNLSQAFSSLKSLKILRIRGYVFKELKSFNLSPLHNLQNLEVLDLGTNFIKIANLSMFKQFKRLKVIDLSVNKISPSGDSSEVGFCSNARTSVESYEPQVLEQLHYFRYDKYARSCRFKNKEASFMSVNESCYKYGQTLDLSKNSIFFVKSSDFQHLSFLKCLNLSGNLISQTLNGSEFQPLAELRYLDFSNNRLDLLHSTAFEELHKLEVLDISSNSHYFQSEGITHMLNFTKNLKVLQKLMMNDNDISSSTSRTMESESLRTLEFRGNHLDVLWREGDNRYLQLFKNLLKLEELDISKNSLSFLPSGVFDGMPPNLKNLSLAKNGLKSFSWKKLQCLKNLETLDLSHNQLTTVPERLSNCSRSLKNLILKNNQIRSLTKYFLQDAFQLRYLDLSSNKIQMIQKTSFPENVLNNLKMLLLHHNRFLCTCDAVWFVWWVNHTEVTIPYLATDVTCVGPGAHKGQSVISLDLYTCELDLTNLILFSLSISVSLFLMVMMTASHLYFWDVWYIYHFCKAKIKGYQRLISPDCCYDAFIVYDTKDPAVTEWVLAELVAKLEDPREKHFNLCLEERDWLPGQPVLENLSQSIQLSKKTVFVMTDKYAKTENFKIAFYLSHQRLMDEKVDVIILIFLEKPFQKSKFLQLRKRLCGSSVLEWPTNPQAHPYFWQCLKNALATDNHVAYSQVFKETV
The test can be described thus: In vitro human TLR7 binding reporter assay (HEK-Blue, NF-kB/AP1-inducible SEAP). The class given is cell-based. To be noted: read-out: TLR7 Agonist EC50. In outline:
(§1)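 EC50s come from NF-kB/AP1-driven SEAP secretion in HEK-Blue cells expressing TLR7 or TLR8, measured with Quanti-Blue after an 18 h compound incubation. Maximal response is defined by a 50 μM reference standard.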

Test [3] addresses T2, TLR8 (Homo sapiens, UniProt Q9NR97).
T2 construct: human HEK-Blue cells co-expressing a TLR7 or TLR8 gene
T2 sequence (Q9NR97 27-1041): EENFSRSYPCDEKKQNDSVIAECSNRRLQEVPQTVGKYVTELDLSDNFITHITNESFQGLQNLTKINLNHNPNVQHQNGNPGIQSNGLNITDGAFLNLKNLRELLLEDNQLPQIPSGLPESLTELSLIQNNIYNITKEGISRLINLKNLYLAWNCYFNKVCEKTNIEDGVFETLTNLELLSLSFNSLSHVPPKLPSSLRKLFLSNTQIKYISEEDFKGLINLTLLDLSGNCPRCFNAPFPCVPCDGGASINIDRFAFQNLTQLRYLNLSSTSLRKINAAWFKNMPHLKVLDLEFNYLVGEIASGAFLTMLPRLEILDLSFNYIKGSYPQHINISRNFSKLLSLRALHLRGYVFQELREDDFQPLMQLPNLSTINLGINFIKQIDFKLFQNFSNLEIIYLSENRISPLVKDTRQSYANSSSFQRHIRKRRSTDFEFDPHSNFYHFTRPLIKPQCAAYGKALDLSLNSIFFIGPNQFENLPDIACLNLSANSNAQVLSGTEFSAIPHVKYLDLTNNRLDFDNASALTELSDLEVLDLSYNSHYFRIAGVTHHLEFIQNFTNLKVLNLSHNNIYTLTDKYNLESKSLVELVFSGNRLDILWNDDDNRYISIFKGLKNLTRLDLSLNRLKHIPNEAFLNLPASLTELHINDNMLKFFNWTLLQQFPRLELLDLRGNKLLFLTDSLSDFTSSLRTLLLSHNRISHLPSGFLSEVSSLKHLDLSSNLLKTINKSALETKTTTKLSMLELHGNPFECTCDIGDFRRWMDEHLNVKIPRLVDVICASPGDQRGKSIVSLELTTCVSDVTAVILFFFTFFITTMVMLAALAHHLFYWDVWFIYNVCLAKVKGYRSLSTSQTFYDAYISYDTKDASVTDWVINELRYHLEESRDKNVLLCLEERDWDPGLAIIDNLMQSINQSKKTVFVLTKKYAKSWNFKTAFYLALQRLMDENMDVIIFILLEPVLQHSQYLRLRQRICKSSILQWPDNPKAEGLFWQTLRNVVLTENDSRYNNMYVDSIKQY
The test can be described thus: In vitro human TLR8 binding reporter assay (HEK-Blue, NF-kB/AP1-inducible SEAP). It counts as cell-based. To be noted: read-out: TLR8 Agonist EC50. In outline: as §1

Where two headings read alike, the source gives them in different places. Some results are limits rather than exact numbers.

Turning to `CC(C)(F)C(=O)NCCn1nc2c(N)nc3cc(-c4ccn[nH]4)ccc3c2n1` [Example 157, N-{2-[4-amino-7-(1H-pyrazol-5-yl)-2H-[1,2,3]triazolo[4,5-c]quinolin-2-yl]ethyl}-2-fluoro-2-methylpropanamide], the values for the EC50 in test [1] (human), in test [2] (activity range class) and in test [3] (activity range class) were 5.17 µM, over 100 µM and over 100 µM, respectively.
As to `Nc1nc2cc(-c3cc[nH]n3)ccc2c2nn(CCNC(=O)c3ccc(F)cn3)cc12` [Example 196], the EC50 in test [1] (human) is 0.18 µM; in test [2] (activity range class) it was over 100 µM; in test [3] (activity range class), over 100 µM.
Consider `CC[C@H](O)Cn1cc2c(N)nc3cc(-c4cc[nH]n4)ccc3c2n1` [Example 367], for which the results for the EC50 in test [1] (human), in test [2] (activity range class) and in test [3] (activity range class) were 0.23 µM, over 100 µM and over 100 µM, respectively.
With `CCCn1cc2c(N)nc3cc(-c4cc[nH]n4)ccc3c2n1` [Example 220], the EC50 in test [1] (human) was 0.12 µM; in test [2] (activity range class), over 100 µM; in test [3] (activity range class), over 100 µM.
On to `CCOCC(=O)NC(C)Cn1cc2c(N)nc3cc(-c4ccn[nH]4)ccc3c2n1` (stereo not drawn) [Example 298], for which the figures for the EC50 in test [1] (human), in test [2] (activity range class) and in test [3] (activity range class) were 4.32 µM, over 100 µM and over 100 µM, respectively.
For `Nc1nc2cc(-c3cc[nH]n3)ccc2c2cn(CCNC(=O)COCC(F)(F)F)nc12` [Example 178], the results for the EC50 in test [1] (human), in test [2] (activity range class) and in test [3] (activity range class) were 1.44 µM, over 100 µM and over 100 µM, respectively.
For the compound `Nc1nc2cc(-c3cc[nH]n3)ccc2c2c1cnn2CCc1ccccn1` [Example 227], the EC50 in test [1] (human) is 1.81 µM; in test [2] (activity range class) it was over 100 µM; in test [3] (activity range class) it was over 100 µM.
On to `CNC(=O)CC(C)n1cc2c(N)nc3cc(-c4cc[nH]n4)ccc3c2n1` (stereo not drawn) [Example 621], for which the EC50 in test [1] (human cells) was 1.86 µM; in test [2] (activity range), over 100 µM; in test [3] (activity range), over 100 µM.
Turning to `CC(Cn1cc2c(N)nc3cc(-n4cccn4)ccc3c2n1)NC(=O)C(C)(C)F` (stereo not drawn) [Example 431], the results for the EC50 in test [1] (human cells), in test [2] (activity range) and in test [3] (activity range) were 1.23 µM, over 100 µM and over 100 µM, respectively.
`Nc1nc2cc(-c3cc[nH]n3)ccc2c2nn(CCNC(=O)C3CCCCO3)cc12` (stereo not drawn) [Example 199]: the results for the half-maximal effective concentration (EC50) in test [1] (human), in test [2] (activity range class) and in test [3] (activity range class) were 4.44 µM, over 100 µM and over 100 µM, respectively.
On to `CC(Cn1cc2c(N)nc3cc(-c4ccn[nH]4)ccc3c2n1)NC(=O)c1ccc(F)cn1` (stereo not drawn) [Example 294], for which the EC50 was 0.43 µM in test [1] (human), over 100 µM in test [2] (activity range class) and over 100 µM in test [3] (activity range class).
For the compound `CC(C)(Cn1cc2c(N)nc3cc(-c4ccn[nH]4)ccc3c2n1)C(=O)N1CCOCC1` [Example 591], the EC50 in test [1] (human cells) was 17 µM; in test [2] (activity range), over 100 µM; in test [3] (activity range), over 100 µM.
On to `Nc1nc2cc(-c3ccn[nH]3)ccc2c2nn(CCN3CCC3)cc12` [Example 271], for which the EC50 was 1.07 µM in test [1] (human), over 100 µM in test [2] (activity range class) and over 100 µM in test [3] (activity range class).
As to `Nc1nc2cc(-c3cc[nH]n3)ccc2c2nn(CCCCO)cc12` [Example 351], the EC50 in test [1] (human) is 0.64 µM; in test [2] (activity range class), over 100 µM; in test [3] (activity range class), over 100 µM.
`COc1ccccc1C(=O)NCCn1cc2c(n1)c(N)nc1cc(-c3cc[nH]n3)ccc12` [Example 81]: the results for the EC50 in test [1] (human), in test [2] (activity range class) and in test [3] (activity range class) were 0.68 µM, over 100 µM and 20 to 100 µM, respectively.
Regarding `Nc1nc2cc(-c3cc[nH]n3)ccc2c2[nH]c(CCNC(=O)C3CCCCO3)cc12` (stereo not drawn) [Example 415], the figures for the EC50 in test [1] (human cells), in test [2] (activity range) and in test [3] (activity range) were 1.89 µM, over 100 µM and over 100 µM, respectively.
Turning to `Nc1nc2cc(-c3cc[nH]n3)ccc2c2c1cnn2CCO` [Example 217], the figures for the EC50 in test [1] (human), in test [2] (activity range class) and in test [3] (activity range class) were 1.17 µM, over 100 µM and over 100 µM, respectively.
Regarding `COCCN(C)C(=O)C(C)n1cc2c(N)nc3cc(-c4ccn[nH]4)ccc3c2n1` (stereo not drawn) [Example 582], the EC50 is 3.3 µM in test [1] (human cells), over 100 µM in test [2] (activity range) and over 100 µM in test [3] (activity range).
In the case of `CCOCCn1cc2c(n1)c(N)nc1cc(-c3ccn[nH]3)ccc12` [Example 190], the EC50 in test [1] (human) is 0.22 µM; in test [2] (activity range class), over 100 µM; in test [3] (activity range class), over 100 µM.
Turning to `N#CCCCCn1cc2c(N)nc3cc(-n4cccn4)ccc3c2n1` [Example 559], the EC50 in test [1] (human cells) was 0.6 µM; in test [2] (activity range), over 100 µM; in test [3] (activity range), over 100 µM.
As to `CCC(O)Cn1cc2c(N)nc3cc(-c4cc[nH]n4)ccc3c2n1` (stereo not drawn) [Example 366], the EC50 is 0.42 µM in test [1] (human), over 100 µM in test [2] (activity range class) and over 100 µM in test [3] (activity range class).
As for `COc1ccc(C(=O)NCCn2cc3c(n2)c(N)nc2cc(-c4cc[nH]n4)ccc23)cc1` [Example 40], the values for the EC50 in test [1] (human), in test [2] (activity range class) and in test [3] (activity range class) were 0.78 µM, over 100 µM and over 100 µM, respectively.
Regarding `Nc1nc2cc(-c3cc[nH]n3)ccc2c2cn(CCNCc3ccc(Cl)cc3)nc12` [Example 107], the EC50 in test [1] (human) was 2.63 µM; in test [2] (activity range class), over 100 µM; in test [3] (activity range class) it was over 100 µM.
Consider `CC(C)(C(=O)NC1CCC1)n1cc2c(N)nc3cc(-c4cc[nH]n4)ccc3c2n1` [Example 524], for which the EC50 is 2.03 µM in test [1] (human cells), over 100 µM in test [2] (activity range) and over 100 µM in test [3] (activity range).
In the case of `Nc1nc2cc(-c3cc[nH]n3)ccc2c2cn(CCNC(=O)c3cscn3)nc12` [Example 95], the EC50 was 0.09 µM in test [1] (human), over 100 µM in test [2] (activity range class) and over 100 µM in test [3] (activity range class).
Take `CC(Cn1cc2c(N)nc3cc(-c4ccn[nH]4)ccc3c2n1)NC(=O)C(C)(C)F` (stereo not drawn) [Example 273]: the figures for the EC50 in test [1] (human), in test [2] (activity range class) and in test [3] (activity range class) were 5.16 µM, over 100 µM and over 100 µM, respectively.
In the case of `COCCn1cc2c(N)nc3cc(-c4ccn[nH]4)ccc3c2c1` [Example 456], the results for the EC50 in test [1] (human cells), in test [2] (activity range) and in test [3] (activity range) were 0.23 µM, over 100 µM and over 100 µM, respectively.
Regarding `CN(C)CCn1cc2c(n1)c(N)nc1cc(-c3cc[nH]n3)ccc12` [Example 21], the EC50 in test [1] (human) is 2.08 µM; in test [2] (activity range class) it was 20 to 100 µM; in test [3] (activity range class), over 100 µM.
The matching figures for `Nc1nc2cc(-c3cc[nH]n3)ccc2c2nn(CC3CC(F)(F)C3)cc12` [Example 335]: 0.39 µM, over 100 µM and over 100 µM.

The record behind these values is US12037344B2, “NLRP3 modulators” (INNATE TUMOR IMMUNITY, INC., priority 2018, dated 2024).
